Source: the NIST ThermoML archive (doi:10.1016/j.fluid.2018.10.006)
Numbers after ± are expanded uncertainties.

Details: 525.42 K, Fluid (supercritical or subcritical phases), Coaxial cylinder method

CCCCCC [hexane]
Details	thermal conductivity [W/m/K]
2500 kPa	0.04372 ± 0.0022
2740 kPa	0.04444 ± 0.0022
2850 kPa	0.04444 ± 0.0022
3000 kPa	0.04701 ± 0.0023
3050 kPa	0.04756 ± 0.0024
3100 kPa	0.04855 ± 0.0024
3150 kPa	0.04855 ± 0.0024
3200 kPa	0.04958 ± 0.0024
3250 kPa	0.05034 ± 0.0025
3300 kPa	0.05065 ± 0.0025
3350 kPa	0.05177 ± 0.0025
3400 kPa	0.05311 ± 0.0026
3450 kPa	0.0538 ± 0.0026
3500 kPa	0.05526 ± 0.0027
3550 kPa	0.05659 ± 0.0027
3600 kPa	0.05777 ± 0.0028
3650 kPa	0.059 ± 0.0028
3700 kPa	0.0603 ± 0.0029
3750 kPa	0.06164 ± 0.0029
3800 kPa	0.06281 ± 0.003
3850 kPa	0.06378 ± 0.003
3900 kPa	0.06477 ± 0.0031
4000 kPa	0.06632 ± 0.0031
4100 kPa	0.06685 ± 0.0032
4200 kPa	0.06685 ± 0.0032
4300 kPa	0.06685 ± 0.0032
4400 kPa	0.06684 ± 0.0032
4500 kPa	0.06684 ± 0.0032
4600 kPa	0.06684 ± 0.0032
4700 kPa	0.06683 ± 0.0032
4800 kPa	0.06683 ± 0.0032
4900 kPa	0.06848 ± 0.0032
5000 kPa	0.06848 ± 0.0032
5100 kPa	0.06848 ± 0.0032
5200 kPa	0.06848 ± 0.0032
5300 kPa	0.07141 ± 0.0033
5400 kPa	0.07172 ± 0.0034
5500 kPa	0.07172 ± 0.0034
5600 kPa	0.07172 ± 0.0034
5700 kPa	0.07203 ± 0.0034
5800 kPa	0.07203 ± 0.0034
5900 kPa	0.07218 ± 0.0034
6000 kPa	0.07233 ± 0.0034
6100 kPa	0.07249 ± 0.0034
6200 kPa	0.07249 ± 0.0034
6300 kPa	0.07265 ± 0.0034
6400 kPa	0.07281 ± 0.0034
6500 kPa	0.0728 ± 0.0034
6600 kPa	0.07296 ± 0.0034
6700 kPa	0.07312 ± 0.0034
6800 kPa	0.07328 ± 0.0034
6900 kPa	0.07348 ± 0.0034
7000 kPa	0.07361 ± 0.0034
7100 kPa	0.07377 ± 0.0034
7200 kPa	0.07393 ± 0.0034
7317 kPa	0.0741 ± 0.0034
7328 kPa	0.07412 ± 0.0034
7405 kPa	0.07412 ± 0.0034
7500 kPa	0.07428 ± 0.0035
7600 kPa	0.07445 ± 0.0035
7700 kPa	0.07462 ± 0.0035
7800 kPa	0.07478 ± 0.0035
7900 kPa	0.07482 ± 0.0035
8000 kPa	0.07495 ± 0.0035
8100 kPa	0.07512 ± 0.0035
8200 kPa	0.07529 ± 0.0035
8300 kPa	0.07546 ± 0.0035
8400 kPa	0.07546 ± 0.0035
8500 kPa	0.07546 ± 0.0035
8600 kPa	0.07563 ± 0.0035
8700 kPa	0.07583 ± 0.0035
8800 kPa	0.07597 ± 0.0035
8900 kPa	0.07614 ± 0.0035
9000 kPa	0.07632 ± 0.0035
9100 kPa	0.07632 ± 0.0035
9200 kPa	0.07649 ± 0.0036
9300 kPa	0.07667 ± 0.0036
9400 kPa	0.07674 ± 0.0036
9500 kPa	0.07684 ± 0.0036
9600 kPa	0.07701 ± 0.0036
9700 kPa	0.07712 ± 0.0036
9800 kPa	0.07726 ± 0.0036
